Measured values from patent US20250179051A1, “PYRIMIDINLY-OXY-QUINOLINE BASED HERBICIDAL COMPOUNDS” (SYNGENTA CROP PROTECTION AG, priority 2022, published 2025).

Columns and labels:
Format in all cases: in vivo
Conditions in all cases: 250 g/ha, evaluated after 13 days, five-point scale
[1] = system: Amaranthus palmeri (AMAPA); test: Post-emergence herbicide glasshouse test
Method: (§1) Seeds of a variety of test species are sown in standard soil in pots Amaranthus retoflexus (AMARE), Amaranthus palmeri (AMAPA), Echinochloa crus-galli (ECHCG), Ipomoea hederacea (IPOHE), Setaria faberi (SETFA). After cultivation for one day (pre-emergence) or after 8 days cultivation (post-emergence) under controlled conditions in a glasshouse (at 24/16° C., day/night; 14 hours light; 65% humidity), the plants are sprayed with an aqueous spray solution derived from the formulation of the technical active ingredient in acetone/water (50:50) solution containing 0.5% Tween 20 (polyoxyethelyene sorbitan monolaurate, CAS RN 9005-64-5). Compounds are applied at 250 g/ha unless otherwise stated. The test plants are then grown in a glasshouse under controlled conditions in a glasshouse (at 24/16° C., day/night; 14 hours light; 65% humidity) and watered twice daily. After 13 days for pre and post-emergence, the test is evaluated for the percentage damage caused to the plant. The biological activities are shown in the following table on a five-point scale (5=81-100%; 4=61-80%; 3=41-60%; 2=21-40%; 1=0-20%).

[2] = system: Ipomoea hederacea (IPOHE); test: Post-emergence herbicide glasshouse test
Method: as §1

Setaria faberi (SETFA) [3] = test: Post-emergence herbicide glasshouse test
Method: as §1

[4] = system: Amaranthus retoflexus (AMARE); test: Post-emergence herbicide glasshouse test
Method: as §1

[5] = system: Echinochloa crus-galli (ECHCG); test: Post-emergence herbicide glasshouse test
Method: as §1

[6] = system: Amaranthus palmeri (AMAPA); test: Pre-emergence herbicide glasshouse test
Method: as §1

[7] = system: Ipomoea hederacea (IPOHE); test: Pre-emergence herbicide glasshouse test
Method: as §1

Setaria faberi (SETFA) [8] = test: Pre-emergence herbicide glasshouse test
Method: as §1

[9] = system: Amaranthus retoflexus (AMARE); test: Pre-emergence herbicide glasshouse test
Method: as §1

[10] = system: Echinochloa crus-galli (ECHCG); test: Pre-emergence herbicide glasshouse test
Method: as §1

Compound	percentage damage caused to the plant, AMAPA [1]	percentage damage caused to the plant, IPOHE [2]	percentage damage caused to the plant, SETFA (Setaria faberi (SETFA) [3])	percentage damage caused to the plant, AMARE [4]	percentage damage caused to the plant, ECHCG [5]	percentage damage caused to the plant, AMAPA [6]	percentage damage caused to the plant, IPOHE [7]	percentage damage caused to the plant, SETFA (Setaria faberi (SETFA) [8])	percentage damage caused to the plant, AMARE [9]	percentage damage caused to the plant, ECHCG [10]
CC(Br)c1nc(C(F)(F)F)nc2cccc(Oc3ncc(Cl)cn3)c12 (stereo not drawn) [Compound 1.001, 4-(1-bromoethyl)-5-(5-chloropyrimidin-2-yl)oxy-2-(trifluoromethyl)quinazoline]	3 (3=41-60%)	3 (3=41-60%)	1 (1=0-20%)	3 (3=41-60%)	1 (1=0-20%)	3 (3=41-60%)	1 (1=0-20%)	2 (2=21-40%)	2 (2=21-40%)	1 (1=0-20%)
CC(=NOCC1CC1)c1nc(C(F)(F)F)nc2cccc(Oc3ncc(Cl)cn3)c12 [Compound 1.003]	1 (1=0-20%)	1 (1=0-20%)	1 (1=0-20%)	1 (1=0-20%)	1 (1=0-20%)	1 (1=0-20%)	1 (1=0-20%)	1 (1=0-20%)	1 (1=0-20%)	1 (1=0-20%)
FC(F)(F)c1nc(CCC=NOCC2CC2)c2c(Oc3ncc(Cl)cn3)cccc2n1 [Compound 1.005]	5 (5=81-100%)	2 (2=21-40%)	4 (4=61-80%)	4 (4=61-80%)	4 (4=61-80%)	5 (5=81-100%)	1 (1=0-20%)	5 (5=81-100%)	3 (3=41-60%)	4 (4=61-80%)
CCON=CCc1nc(C(F)(F)F)nc2cccc(Oc3ncc(Cl)cn3)c12 [Compound 1.006]	2 (2=21-40%)	1 (1=0-20%)	1 (1=0-20%)	3 (3=41-60%)	1 (1=0-20%)	3 (3=41-60%)	1 (1=0-20%)	1 (1=0-20%)	1 (1=0-20%)	1 (1=0-20%)
CON=CCc1nc(C(F)(F)F)nc2cccc(Oc3ncc(Cl)cn3)c12 [Compound 1.007]	2 (2=21-40%)	1 (1=0-20%)	1 (1=0-20%)	2 (2=21-40%)	1 (1=0-20%)	1 (1=0-20%)	1 (1=0-20%)	1 (1=0-20%)	1 (1=0-20%)	1 (1=0-20%)
FC(F)(F)c1nc(CC=NOCC2CC2)c2c(Oc3ncc(Cl)cn3)cccc2n1 [Compound 1.008, 2-[5-(5-chloropyrimidin-2-yl)oxy-2-(trifluoromethyl)quinazolin-4-yl]-N-(cyclopropylmethoxy) ethanimine]	4 (4=61-80%)	1 (1=0-20%)	1 (1=0-20%)	4 (4=61-80%)	2 (2=21-40%)	2 (2=21-40%)	1 (1=0-20%)	1 (1=0-20%)	1 (1=0-20%)	1 (1=0-20%)
CCO/N=C/CCc1nc(C(F)(F)F)nc2cccc(Oc3ncc(Cl)cn3)c12 [Compound 1.009]	5 (5=81-100%)	5 (5=81-100%)	5 (5=81-100%)	5 (5=81-100%)	5 (5=81-100%)	5 (5=81-100%)	1 (1=0-20%)	5 (5=81-100%)	5 (5=81-100%)	5 (5=81-100%)
CN(C)/C=C/c1nc(C(F)(F)F)nc2cccc(Oc3ncc(Cl)cn3)c12 [Compound 1.010, 2-[5-(5-chloropyrimidin-2-yl)oxy-2-(trifluoromethyl)quinazolin-4-yl]-N,N-dimethyl-ethenamine]	3 (3=41-60%)	1 (1=0-20%)	1 (1=0-20%)	3 (3=41-60%)	1 (1=0-20%)	2 (2=21-40%)	1 (1=0-20%)	1 (1=0-20%)	2 (2=21-40%)	1 (1=0-20%)
Fc1ccc(-c2nc(C(F)(F)F)nc3cccc(Oc4ncc(Cl)cc4F)c23)cc1 [Compound 1.040]		2 (2=21-40%)	1 (1=0-20%)	2 (2=21-40%)	1 (1=0-20%)		1 (1=0-20%)	1 (1=0-20%)	1 (1=0-20%)	1 (1=0-20%)
Fc1ccc(-c2nc(C(F)(F)F)nc3cccc(Oc4ncc(Cl)cn4)c23)cc1 [Compound 1.042]		3 (3=41-60%)	1 (1=0-20%)	3 (3=41-60%)	1 (1=0-20%)		1 (1=0-20%)	1 (1=0-20%)	1 (1=0-20%)	1 (1=0-20%)
C=CCCc1nc(C(F)(F)F)nc2cccc(Oc3ncc(Cl)cn3)c12 [Compound 1.043, 4-but-3-enyl-5-(5-chloropyrimidin-2-yl)oxy-2-(trifluoromethyl)quinazoline]		3 (3=41-60%)	4 (4=61-80%)	5 (5=81-100%)	4 (4=61-80%)		1 (1=0-20%)	5 (5=81-100%)	4 (4=61-80%)	5 (5=81-100%)
FC(F)(F)c1nc(CCC2CCOCC2)c2c(Oc3ncc(Cl)cn3)cccc2n1 [Compound 1.044]		4 (4=61-80%)	5 (5=81-100%)	5 (5=81-100%)	5 (5=81-100%)		5 (5=81-100%)	5 (5=81-100%)	5 (5=81-100%)	5 (5=81-100%)
N#CCCc1nc(C(F)(F)F)nc2cccc(Oc3ncc(Cl)cn3)c12 [Compound 1.046, 3-[5-(5-chloropyrimidin-2-yl)oxy-2-(trifluoromethyl)quinazolin-4-yl]propanenitrile]	5 (5=81-100%)	4 (4=61-80%)	2 (2=21-40%)		2 (2=21-40%)	5 (5=81-100%)	5 (5=81-100%)	5 (5=81-100%)	5 (5=81-100%)	5 (5=81-100%)
Fc1cnc(Oc2cccc3nc(C(F)(F)F)nc(CCC4CC4)c23)nc1 [Compound 1.064]	4 (4=61-80%)	4 (4=61-80%)		5 (5=81-100%)	4 (4=61-80%)	5 (5=81-100%)	5 (5=81-100%)		5 (5=81-100%)	4 (4=61-80%)
